How the values were obtained:
[1] = target: partially purified TDTM-003 dehalogenase (Rhodococcus sp. TDTM0003, UniProt P59336); assay: Substrate profile of partially purified TDTM-003 dehalogenase; type: biochemical, Rhodococcus species TDTM-003; settings: corrected for non-enzymatic hydrolysis
Protocol: (§1) Hydrolytic dehalogenase enzyme activity was evaluated by adding an appropriate amount of cell free extract or enzyme preparation to 5.0 mL of 100 mM glycine buffer, pH=9.0 in a 7 mL glass vial. The halogenated substrate (5.0 μl) and a small stir bar were added, and the vial capped. Reaction was initiated by transfer to a 30° C. water bath equipped with a magnetic stirrer. Periodically 1.0 mL samples were removed and assayed for free halide. Rates were determined after correcting for non-enzymatic hydrolysis with an appropriate blank. A standard curve was prepared using sodium chloride.
Frozen pellets from 2 liters of culture were thawed into 150 mL of 10 mM Tris sulfate buffer, pH=7.5 containing 1 mM disodium EDTA. This buffer was used throughout the entire purification. The suspension was sonicated for approximately 1 hour with ice cooling using a Microson Ultrasonic Cell Disrupter and centrifuged at 10,000 rpm for 15 minutes to remove cell debris. Supernatant was removed and the sonication/centrifugation repeated with fresh buffer to increase enzyme yield. Overall sonication efficiency was monitored by absorbence at 280 nm. Cell free extracts were combined and brought slowly to 30 percent saturation with solid ammonium sulfate. The suspension was centrifuged at 10,000 rpm for 30 minutes and the pellet discarded. The supernatant was brought to 70 percent saturation with solid ammonium sulfate and centrifugation repeated. Supernatant was discarded and the pellet taken up in a small volume of buffer and dialyzed overnight against 1 liter of the same. The preparation was applied to a 1.5×15cm column of DEAE-Sephadex equilibrated with the same buffer elution carried out with a 1 liter gradient from 0 to 400 mM ammonium sulfate. Fractions of about 7-8 mLs were collected. The active fractions were pooled and brought to 90 percent saturation with ammonium sulfate. The pellet was taken up in a minimal amount of buffer, ultrafiltered to 2.5 mL using 10,000 MWCO Novacell Ultrafiltration cell, and applied to a 1.5×90 cm Sephadex G-100 column. Elution was by gravity at 90 cm and fractions of 7-8 mLs were collected. Active fractions were poled, brought to 30 percent saturation with ammonium sulfate, and applied to a 10 ml column of Butyl-agarose equilibrated in the same. Elution was performed with a 500 mL gradient from 30 percent-0 percent ammonium sulfate. Active fractions were pooled, dialyzed and used for substrate selectivity studies.
To evaluate the substrate selectivity of haloalkane dehalogenase from isolated Rhodococcus species, an enzyme preparation from the strain designated TDTM-003 was purified by the procedure described under General Experimental. This preparation provided a dehalogenase which was approximately 50 percent pure as estimated by SDS-PAGE and was free of interfering halohydrin dehalogenase activity.
The activity of this partially purified TDTM-003 dehalogenase preparation was evaluated against various chlorinated and brominated substrates. Each enzymatic rate was corrected for non-enzymatic hydroloysis.

[2] = system: dehalogenase in cell free extracts of Rhodococcus Rhodochrous, TDTM-003; assay: Primary screen of dehalogenase activity in cell free extracts of TDTM-003; type: biochemical
Protocol: Following overnight growth, 50 μl of 1-chlorobutane was added to induce the dehalogenase. After 24 hours induction, cells were harvested by centrifugation, resuspended in cold 10mM Tris sulfate/1 mM disodium EDTA, pH=7.5, and disrupted by sonication. Cell debris was removed by centrifugation at 10,000 rpm for 30 minutes, cell free extracts dialyzed overnight against the same buffer, and assayed without dilution for dehalogenase activity.
Free chloride or bromide was assayed qualitatively using a chloride electrode (Orion), or quantitatively using the colorimetric method (430 nm) described by J. G. Bergmann, et al., Anal. Chem., 29:241-243 (1957).
as §1
Preliminary studies were performed on cell free extracts of TDTM-003 to evaluate the enzyme substrate selectivity, and the results of this study are shown in Table 2.

partially purified TDTM-003 dehalogenase, sequence (P59336 whole entry): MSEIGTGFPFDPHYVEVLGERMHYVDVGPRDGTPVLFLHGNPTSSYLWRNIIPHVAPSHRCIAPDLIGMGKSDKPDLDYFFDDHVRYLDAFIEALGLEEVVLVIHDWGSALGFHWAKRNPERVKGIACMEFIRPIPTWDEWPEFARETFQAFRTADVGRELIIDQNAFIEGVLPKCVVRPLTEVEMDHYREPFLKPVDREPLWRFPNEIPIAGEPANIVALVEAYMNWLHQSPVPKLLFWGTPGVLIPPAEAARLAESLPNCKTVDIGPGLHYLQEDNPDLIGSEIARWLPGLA

Compound | Relative Rate of Halogen Release, 1-Chlorobutane = 100 [1] | Relative Rate of Chloride Release, 1-chlorobutane = 100 [2]
CCC(C)Br (centres unmarked) [2-bromobutane] | 123.000 | 
CC(Cl)CCCl (centres unmarked) [1,3-dichlorobutane] | 81.000 | 63
CC(Br)CBr (centres unmarked) [1,2-dibromopropane] | 900.000 | 
ClCCCCCCCl [1,6-dichlorohexane] | 252.000 | 169
CC(Br)CCBr (centres unmarked) [1,3-dibromobutane] | 155.000 | 
CC(C)(C)Cl [2-chloro-2-methylpropane] |  | 2917
CCC(Br)CBr (centres unmarked) [1,2-dibromobutane] | 756.000 | 
ClC1CCCCC1 [chlorocyclohexane] | 7.500 | 
BrCCBr [1,2-dibromoethane] | 1318.000 | 
CCCCCCCCBr [1-bromooctane] | 414.000 | 
CC(C)CCl [1-chloro-2-methylpropane] |  | 117
CC(Cl)C(C)Cl (centres unmarked) [2,3-dichlorobutane] | 19.000 | 73
CCCCl [1-chloropropane] | 33.000 | 57
ClCCCCCCl [1,5-dichloropentane] | 173.000 | 112
CCC(C)Cl (centres unmarked) [2-chlorobutane] | 20.000 | 65
CC(C)Br [2-Bromopropane] | 55.000 | 

Compound | Relative Rate of Halogen Release, 1-Chlorobutane = 100 [1] | Relative Rate of Chloride Release, 1-chlorobutane = 100 [2]
BrCCCCBr [1,4-dibromobutane] | 294.000 | 
CCCCCCCCCl [1-chlorooctane] | 58.000 | 159
BrCCCBr [1,3-dibromopropane] | 771.000 | 
CCCCCCCl [1-chlorohexane] | 119.000 | 136
CCCCCCBr [1-bromohexane] | 162.000 | 
ClCCCCl [1,3-dichloropropane] | 253.000 | 203
CCCCCBr [1-bromopentane] | 203.000 | 
CCCBr [1-bromopropane] | 459.000 | 
BrCCCCCCCCBr [1,8-dibromooctane] | 173.000 | 
ClCCBr [1-bromo-2-chloroethane] | 751.000 | 
CC(C)(Cl)Cl [2,2-dichloropropane] | 23.000 | 
BrCCCCCCBr [1,6-dibromohexane] | 244.000 | 
CCCCCCCCCCBr [1-bromodecane] | 98.000 | 
CC(Br)C(C)Br (centres unmarked) [2,3-dibromobutane] | 846.000 | 
CCCCCCCCl [1-chloroheptane] | 130.000 | 
CCCCCCCCCCCl [1-chlorodecane] | 28.000 | 

Reference: US5372944A, “Method for conversion of halogenated hydrocarbons to halohydrins” (The Dow Chemical Company, priority 1993, dated 1994)
